Reference: patent US20200339511A1, “Substituted indoline derivatives as dengue viral replication inhibitors” (priority 2016, published 2020)

Columns and labels:
DENV-2 16681 strain = experiment: DENV-2 antiviral assay (eGFP-labeled virus in Vero cells); format: cell-based, Dengue virus; settings: DENV-2 16681 eGFP, MOI 0.5, 3 days
Experimental: The antiviral activity of all the compounds of the invention was tested the against DENV-2 16681 strain which was labeled with enhanced green fluorescent protein (eGPF). The culture medium consists of minimal essential medium supplemented with 2% of heat-inactivated fetal calf serum, 0.04% gentamycin (50 mg/mL) and 2 mM of L-glutamine. Vero cells, obtained from ECACC, were suspended in culture medium and 25 μL was added to 384-well plates (2500 cells/well), which already contain the antiviral compounds. Typically, these plates contain a 5-fold serial dilution of 9 dilution steps of the test compound at 200 times the final concentration in 100% DMSO (200 nL). […] Finally, each plate contains wells which are assigned as virus controls (containing cells and virus in the absence of compound), cell controls (containing cells in the absence of virus and compound) and medium controls (containing medium in the absence of cells, virus and compounds). To the wells assigned as medium control, 25 μL of culture medium was added instead of Vero cells. Once the cells were added to the plates, the plates were incubated for 30 minutes at room temperature to allow the cells to distribute evenly within the wells. Next, the plates were incubated in a fully humidified incubator (37° C., 5% CO2) until the next day. Then, DENV-2 strain 16681, labeled with eGFP, was added at a multiplicity of infection (MOI) of 0.5. Therefore, 15 μL of virus suspension was added to all the wells containing test compound and to the wells assigned as virus control. In parallel, 15 μL of culture medium was added to the medium and cell controls. Next, the plates were incubated for 3 days in a fully humidified incubator (37° C., 5% CO2). At the day of the read out, the eGFP fluorescence was measured using an automated fluorescence microscope at 488 nm (blue laser). Using an in-house LIMS system, inhibition dose response curves for each compound were calculated and the half maximal effective concentration (EC50) was determined. Therefore, the percent inhibition (I) for every test concentration is calculated using the following formula: I=100*(ST-SCC)/(SVC-SCC), ST, SCC and SVC are the amount of eGFP signal in the test compound, cell control and virus control wells, respectively. The EC50 represents the concentration of a compound at which the virus replication is inhibited with 50%, as measured by a 50% reduction of the eGFP fluorescent intensity compared to the virus control. The EC50 is calculated using linear interpolation (Table 1).

in vitro = settings: African green monkey
Vero cells = settings: African green monkey
[1] = Dengue virus, DENV2, Vero, 72 h

Row | SMILES | EC50 (DENV-2 16681 strain; [1]) [µM] | CC50 (in vitro) [µM] | EC50 (DENV-2 16681 strain) [µM] | CC50 (Vero cells) [µM]
1 | COc1cc(NC(C(=O)N2CCc3ccc(C(F)(F)F)cc32)c2ccc(Cl)cc2F)cc(OCCO)c1 (racemic) [Compound 2, 2-(4-chloro-2-fluorophenyl)-2-((3-(2-hydroxyethoxy)-5-methoxyphenyl)amino)-1-(6-(trifluoromethyl)indolin-1-yl)ethanone] | 0.0089 | 12 |  | 
2 | COc1cc(NC(C(=O)N2CCc3ccc(OC(F)(F)F)cc32)c2ccc(Cl)cc2F)cc(OCCO)c1 (racemic) [Compound 6, 2-(4-chloro-2-fluorophenyl)-2-((3-(2-hydroxyethoxy)-5-methoxyphenyl)amino)-1-(6-(trifluoromethoxy)indolin-1-yl)ethanone] | 0.0062 | 14 |  | 
3 | COc1cc(NC(C(=O)N2CCc3cc(OC)c(C(F)(F)F)cc32)c2ccc(Cl)cc2)cc(OCCO)c1 (racemic) [Compound 7, 2-(4-chlorophenyl)-2-((3-(2-hydroxyethoxy)-5-methoxyphenyl)amino)-1-(5-methoxy-6-(trifluoromethyl)indolin-1-yl)ethanone] | 0.0023 | 11 |  | 
4 | COc1cc(NC(C(=O)N2CCc3cc(OC)c(C(F)(F)F)cc32)c2ccc(Cl)cc2F)cc(OCCO)c1 (racemic) [Compound 8, 2-(4-chloro-2-fluorophenyl)-2-((3-(2-hydroxyethoxy)-5-methoxyphenyl)amino)-1-(5-methoxy-6-(trifluoromethyl)indolin-1-yl)ethanone] | 0.0044 | > 25 |  | 
5 | COc1cc(NC(C(=O)N2CCc3ccc(C(F)(F)F)cc32)c2ccc(Cl)cc2OC)cc(OCCO)c1 (single isomer, unassigned) [Compound 1A, 2-(4-chloro-2-methoxyphenyl)-2-((3-(2-hydroxyethoxy)-5-methoxyphenyl)amino)-1-(6-(trifluoromethyl)indolin-1-yl)ethanone] |  | 13 | 0.22 | 
6 | COc1cc(NC(C(=O)N2CCc3ccc(C(F)(F)F)cc32)c2ccc(Cl)cc2F)cc(OCCO)c1 (single isomer, unassigned) [Compound 2A, 2-(4-chloro-2-fluorophenyl)-2-((3-(2-hydroxyethoxy)-5-methoxyphenyl)amino)-1-(6-(trifluoromethyl)indolin-1-yl)ethanone] |  | 18 | 0.32 | 
7 | COc1cc(NC(C(=O)N2CCc3ccc(OC(F)(F)F)cc32)c2ccc(Cl)cc2)cc(OCCO)c1 (single isomer, unassigned) [Compound 3B, 2-(4-chlorophenyl)-2-((3-(2-hydroxyethoxy)-5-methoxyphenyl)amino)-1-(6-(trifluoromethoxy)indolin-1-yl)ethanone] |  |  | 0.59 | 12
8 | COc1cc(NC(C(=O)N2CCc3ccc(OC(F)(F)F)cc32)c2ccc(Cl)cc2OC)cc(OCCO)c1 (single isomer, unassigned) [Compound 5B, 2-(4-chloro-2-methoxyphenyl)-2-((3-(2-hydroxyethoxy)-5-methoxyphenyl)amino)-1-(6-(trifluoromethoxy)indolin-1-yl)ethanone] |  |  | 0.76 | 14
9 | COc1cc(NC(C(=O)N2CCc3ccc(OC(F)(F)F)cc32)c2ccc(Cl)cc2F)cc(OCCO)c1 (single isomer, unassigned) [Compound 6A, 2-(4-chloro-2-fluorophenyl)-2-((3-(2-hydroxyethoxy)-5-methoxyphenyl)amino)-1-(6-(trifluoromethoxy)indolin-1-yl)ethanone] |  | 17 | 0.28 | 
10 | COc1cc(NC(C(=O)N2CCc3cc(OC)c(C(F)(F)F)cc32)c2ccc(Cl)cc2)cc(OCCO)c1 (single isomer, unassigned) [Compound 7A, 2-(4-chlorophenyl)-2-((3-(2-hydroxyethoxy)-5-methoxyphenyl)amino)-1-(5-methoxy-6-(trifluoromethyl)indolin-1-yl)ethanone] |  | 21 | 0.79 | 
11 | COc1cc(NC(C(=O)N2CCc3cc(OC)c(C(F)(F)F)cc32)c2ccc(Cl)cc2F)cc(OCCO)c1 (single isomer, unassigned) [Compound 8A, 2-(4-chloro-2-fluorophenyl)-2-((3-(2-hydroxyethoxy)-5-methoxyphenyl)amino)-1-(5-methoxy-6-(trifluoromethyl)indolin-1-yl)ethanone] |  |  | 0.46 | > 25
12 | COc1cc(NC(C(=O)N2CCc3c(C)cc(OC(F)(F)F)cc32)c2ccc(Cl)cc2)cc(OCCO)c1 (single isomer, unassigned) [Compound 9A, 2-(4-chlorophenyl)-2-((3-(2-hydroxyethoxy)-5-methoxy-phenyl)amino)-1-(4-methyl-6-(trifluoromethoxy)indolin-1-yl)ethanone] |  | 13 | 1 | 
13 | COc1cc(NC(C(=O)N2CCc3c(C)cc(C(F)(F)F)cc32)c2ccc(Cl)cc2)cc(OCCO)c1 (single isomer, unassigned) [Compound 10A, 2-(4-chlorophenyl)-2-((3-(2-hydroxyethoxy)-5-methoxy-phenyl)amino)-1-(4-methyl-6-(trifluoromethyl)indolin-1-yl)ethanone] |  | 11 | 1.3 | 
14 | COc1cc(NC(C(=O)N2CCc3cc(OC)c(C(F)(F)F)cc32)c2ccc(Cl)cc2OC)cc(OCCO)c1 (single isomer, unassigned) [Compound 11A, 2-(4-chloro-2-methoxyphenyl)-2-((3-(2-hydroxyethoxy)-5-methoxyphenyl)amino)-1-(5-methoxy-6-(trifluoromethyl)indolin-1-yl)ethanone] |  | > 25 | 0.33 | 
15 | COc1cc(NC(C(=O)N2CCc3cc(F)c(C(F)(F)F)cc32)c2ccc(Cl)cc2)cc(OCCO)c1 (single isomer, unassigned) [Compound 12B, 2-(4-chlorophenyl)-1-(5-fluoro-6-(trifluoromethyl)indolin-1-yl)-2-((3-(2-hydroxyethoxy)-5-methoxyphenyl)amino)ethanone] |  |  | 0.4 | 11
16 | COc1cc(NC(C(=O)N2CCc3cc(OC)c(OC(F)(F)F)cc32)c2ccc(Cl)cc2)cc(OCCO)c1 (single isomer, unassigned) [Compound 13B, 2-(4-chlorophenyl)-2-((3-(2-hydroxyethoxy)-5-methoxyphenyl)amino)-1-(5-methoxy-6-(trifluoromethoxy)indolin-1-yl)ethanone] |  |  | 0.28 | > 25
